ChEMBL document CHEMBL4813954, “Dibenzodiazepinone-type muscarinic receptor antagonists conjugated to basic peptides: Impact of the linker moiety and unnatural amino acids on M2R selectivity” (Eur J Med Chem, 2021)
pKi: −log10 of the molar value.

How the values were obtained:
[1] = target: T1, Muscarinic acetylcholine receptor M1 (Homo sapiens, UniProt P11229); assay: Displacement of [3H]-NMS from human muscarinic M1 receptor expressed in CHO cell membranes assessed as inhibition constant by radioligand competition analysis; design: species or system Cell membrane
T1 sequence (P11229 whole entry): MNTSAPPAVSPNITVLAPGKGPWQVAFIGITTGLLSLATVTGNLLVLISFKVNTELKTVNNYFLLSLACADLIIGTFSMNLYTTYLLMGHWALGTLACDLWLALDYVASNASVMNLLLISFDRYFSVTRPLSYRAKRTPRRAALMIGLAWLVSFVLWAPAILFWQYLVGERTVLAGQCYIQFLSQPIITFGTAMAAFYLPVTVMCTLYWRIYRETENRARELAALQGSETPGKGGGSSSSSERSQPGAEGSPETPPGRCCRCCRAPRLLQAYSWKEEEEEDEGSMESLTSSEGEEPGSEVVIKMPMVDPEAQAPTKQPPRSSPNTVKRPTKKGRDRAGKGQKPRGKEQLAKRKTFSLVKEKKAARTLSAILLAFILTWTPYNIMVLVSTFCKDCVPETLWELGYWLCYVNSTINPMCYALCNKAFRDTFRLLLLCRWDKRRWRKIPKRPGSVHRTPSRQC

[2] = target: T2, Muscarinic acetylcholine receptor M4 (Homo sapiens, UniProt P08173); assay: Displacement of [3H]-NMS from human muscarinic M4 receptor expressed in CHO cell membranes assessed as inhibition constant by radioligand competition analysis; design: species or system Cell membrane
T2 sequence (P08173 whole entry): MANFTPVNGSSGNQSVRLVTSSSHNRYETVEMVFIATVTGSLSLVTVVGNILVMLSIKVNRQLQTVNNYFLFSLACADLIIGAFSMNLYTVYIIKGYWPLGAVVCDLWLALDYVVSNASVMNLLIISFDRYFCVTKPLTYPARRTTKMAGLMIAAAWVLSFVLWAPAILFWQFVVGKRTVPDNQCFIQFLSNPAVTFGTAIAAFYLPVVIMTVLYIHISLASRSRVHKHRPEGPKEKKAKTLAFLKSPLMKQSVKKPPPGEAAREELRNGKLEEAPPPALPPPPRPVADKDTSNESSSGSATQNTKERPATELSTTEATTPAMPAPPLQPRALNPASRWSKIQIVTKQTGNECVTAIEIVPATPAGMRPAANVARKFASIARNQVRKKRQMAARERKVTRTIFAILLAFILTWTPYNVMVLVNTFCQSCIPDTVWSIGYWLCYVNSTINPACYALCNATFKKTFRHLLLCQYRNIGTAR

[3] = target: T3, Muscarinic acetylcholine receptor M2 (Homo sapiens, UniProt P08172); assay: Displacement of [3H]-NMS from human muscarinic M2 receptor expressed in CHO cell membranes assessed as inhibition constant by radioligand competition analysis; design: species or system Cell membrane
T3 sequence (P08172 whole entry): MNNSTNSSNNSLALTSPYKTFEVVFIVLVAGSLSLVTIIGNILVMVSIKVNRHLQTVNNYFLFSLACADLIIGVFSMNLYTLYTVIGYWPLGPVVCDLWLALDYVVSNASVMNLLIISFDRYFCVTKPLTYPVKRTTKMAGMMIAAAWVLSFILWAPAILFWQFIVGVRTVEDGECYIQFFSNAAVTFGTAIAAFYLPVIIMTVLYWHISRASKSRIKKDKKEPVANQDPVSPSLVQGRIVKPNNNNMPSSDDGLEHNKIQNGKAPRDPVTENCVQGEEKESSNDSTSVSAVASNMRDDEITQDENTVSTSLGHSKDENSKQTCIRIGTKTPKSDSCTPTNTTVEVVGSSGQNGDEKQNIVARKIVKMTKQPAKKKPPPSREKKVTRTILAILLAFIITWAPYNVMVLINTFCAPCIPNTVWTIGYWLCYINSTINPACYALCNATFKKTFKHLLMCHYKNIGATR

[4] = target: Muscarinic acetylcholine receptor M3 (Homo sapiens, UniProt P20309); assay: Displacement of [3H]-NMS from human muscarinic M3 receptor expressed in CHO cell membranes assessed as inhibition constant by radioligand competition analysis; design: species or system Cell membrane
[5] = target: Muscarinic acetylcholine receptor M2 and M5 (Homo sapiens) (UniProt P08172+P08912); assay: Selectivity index, […] for displacement of [3H]NMS from human recombinant muscarinic receptor M5 expressed in CHO cell membranes […] for displacement of [3H]NMS from human recombinant muscarinic receptor M2 expressed in CHO cell membranes
[6] = target: Muscarinic acetylcholine receptors; M2 & M3 (Homo sapiens) (UniProt P20309+P08172); assay: Selectivity index, […] for displacement of [3H]NMS from human recombinant muscarinic receptor M3 expressed in CHO cell membranes […] for displacement of [3H]NMS from human recombinant muscarinic receptor M2 expressed in CHO cell membranes
[7] = target: T4, Muscarinic acetylcholine receptor M5 (Homo sapiens, UniProt P08912); assay: Displacement of [3H]-NMS from human muscarinic M5 receptor expressed in CHO cell membranes assessed as inhibition constant by radioligand competition analysis; design: species or system Cell membrane
T4 sequence (P08912 whole entry): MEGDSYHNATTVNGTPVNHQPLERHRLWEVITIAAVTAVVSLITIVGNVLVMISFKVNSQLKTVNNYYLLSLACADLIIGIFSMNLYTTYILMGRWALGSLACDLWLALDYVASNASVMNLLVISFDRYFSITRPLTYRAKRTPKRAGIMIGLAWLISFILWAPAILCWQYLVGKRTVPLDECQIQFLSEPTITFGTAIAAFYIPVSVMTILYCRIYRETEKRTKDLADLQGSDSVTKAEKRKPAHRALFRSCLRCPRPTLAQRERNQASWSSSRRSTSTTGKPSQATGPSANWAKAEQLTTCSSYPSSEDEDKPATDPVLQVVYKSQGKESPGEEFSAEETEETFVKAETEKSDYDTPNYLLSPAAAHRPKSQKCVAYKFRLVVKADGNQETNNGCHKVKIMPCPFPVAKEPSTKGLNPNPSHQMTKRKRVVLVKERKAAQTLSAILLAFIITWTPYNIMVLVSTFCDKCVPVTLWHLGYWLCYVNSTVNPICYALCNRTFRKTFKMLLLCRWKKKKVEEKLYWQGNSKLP

Chain of Muscarinic acetylcholine receptor M3 (P20309 whole entry): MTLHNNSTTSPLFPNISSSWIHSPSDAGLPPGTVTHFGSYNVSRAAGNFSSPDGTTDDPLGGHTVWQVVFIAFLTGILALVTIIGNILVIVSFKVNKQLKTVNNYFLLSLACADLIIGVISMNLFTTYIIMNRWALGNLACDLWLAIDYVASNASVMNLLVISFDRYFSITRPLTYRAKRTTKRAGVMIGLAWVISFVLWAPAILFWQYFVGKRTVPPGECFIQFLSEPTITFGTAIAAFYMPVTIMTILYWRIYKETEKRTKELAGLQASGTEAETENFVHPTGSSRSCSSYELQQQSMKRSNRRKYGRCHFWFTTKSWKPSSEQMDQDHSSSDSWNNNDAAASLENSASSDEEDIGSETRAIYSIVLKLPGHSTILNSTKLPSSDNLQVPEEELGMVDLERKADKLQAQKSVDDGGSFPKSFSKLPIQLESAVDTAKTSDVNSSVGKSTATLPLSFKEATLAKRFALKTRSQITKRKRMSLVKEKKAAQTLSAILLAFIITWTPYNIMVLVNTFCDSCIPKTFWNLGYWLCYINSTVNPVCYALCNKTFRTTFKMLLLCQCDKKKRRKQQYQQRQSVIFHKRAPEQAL

Row | pKi [1] | pKi [2] | pKi [3] | pKi [4] | Selectivity Index [5] | Selectivity Index [6] | pKi [7] | Compound
1 | 9.16 | 8.74 | 9.64 |  |  |  |  | N=C(N)NCCC[C@@H](N)C(=O)NCCN1CCN(CCCCC2CCN(CC(=O)N3c4ccccc4NC(=O)c4ccccc43)CC2)CC1
2 |  |  | 5.21 |  |  |  |  | CCCN[C@@H](CCCNC(=N)N)C(=O)N[C@@H](C)C(=O)N[C@@H](CCCCN)C(=O)NC(C)=O
3 | 4.32 | 4.59 | 5.61 |  |  |  |  | NCCN1CCN(CC(=O)NC2CCN(CC(=O)N3c4ccccc4NC(=O)c4ccccc43)CC2)CC1
4 | 7.35 | 7.73 | 8.45 |  |  |  |  | NCCN1CCN(CCCC2CCN(CC(=O)N3c4ccccc4NC(=O)c4ccccc43)CC2)CC1
5 | 7.00 | 7.40 |  | 5.90 | 6.2 | 56 | 6.90 | CC(=O)N[C@@H](Cc1c[nH]c2ccccc12)C(=O)N[C@@H](C)C(=O)N[C@@H](Cc1ccc(O)cc1)C(=O)NCCCCC1CCN(CC(=O)N2c3ccccc3NC(=O)c3ccccc32)CC1
6 | 7.93 | 8.40 | 9.23 | 6.60 | 1300 | > 160 | 6.17 | N=C(N)NCCC[C@@H](N)C(=O)NCCN1CCN(CCCC2CCN(CC(=O)N3c4ccccc4NC(=O)c4ccccc43)CC2)CC1
7 | 8.87 | 9.10 | 9.99 |  |  |  |  | N=C(N)NCCC[C@H](N)C(=O)NCCN1CCN(CCCCC2CCN(CC(=O)N3c4ccccc4NC(=O)c4ccccc43)CC2)CC1
8 | 8.60 | 8.70 | 10.00 | 7.00 | 4900 | 1800 | 6.40 | CC(=O)N[C@@H](CCCCN)C(=O)N[C@@H](C)C(=O)N[C@@H](CCCNC(=N)N)C(=O)NCCN1CCN(CCCCC2CCN(CC(=O)N3c4ccccc4NC(=O)c4ccccc43)CC2)CC1
9 | 5.53 | 5.96 | 5.94 |  |  |  |  | NCC(=O)NC1CCN(CC(=O)N2c3ccccc3NC(=O)c3ccccc32)CC1
10 | 8.10 | 8.60 | 9.10 | 7.20 | 230 | 79 | 6.80 | CCC(=O)NCCNC(=O)CCc1cn(CCCCC2CCN(CC(=O)N3c4ccccc4NC(=O)c4ccccc43)CC2)cn1
11 |  |  |  |  |  | 37 |  | CCN(CC)CCCCC1CCN(CC(=O)N2c3ccccc3NC(=O)c3ccccc32)CC1
12 | 8.59 | 8.60 | 9.73 |  |  |  |  | NC1CCN(CCCCC2CCN(CC(=O)N3c4ccccc4NC(=O)c4ccccc43)CC2)CC1
13 | 7.40 | 7.20 | 9.00 | 5.20 | 400 | 6500 | 6.50 | CC(=O)N[C@@H](CCCCN)C(=O)N[C@@H](CCCNC(=N)N)C(=O)NCCCCC1CCN(CC(=O)N2c3ccccc3NC(=O)c3ccccc32)CC1
14 |  |  | 5.19 |  |  |  |  | CCCN[C@@H](CCCNC(=N)N)C(=O)N[C@@H](CCCCN)C(=O)NC(C)=O
15 | 6.14 | 5.82 | 6.81 |  |  |  |  | NCCN1CCN(C(=O)CCCC2CCN(CC(=O)N3c4ccccc4NC(=O)c4ccccc43)CC2)CC1
16 |  |  | 5.35 |  |  |  |  | CCCN[C@@H](CCNC(=N)N)C(=O)N[C@@H](CCCCN)C(=O)NC(C)=O
17 | 6.44 | 6.44 | 7.63 |  |  |  |  | NCCN1CCN(CCC(=O)NC2CCN(CC(=O)N3c4ccccc4NC(=O)c4ccccc43)CC2)CC1

Row | Compound | pKi [1] | pKi [2] | pKi [3] | pKi [4] | Selectivity Index [5] | Selectivity Index [6] | pKi [7]
18 | Nc1ccccc1C(=O)N1CCC(N2CCC(Cc3ccc(S(=O)(=O)c4cccc(Cl)c4)cc3)CC2)CC1 | 6.49 | 7.04 |  |  |  |  | 
